The target in experiment [1] is S1P5 (Homo sapiens, UniProt Q9H228). Description: S1P receptor activity assay (calcium flux, FLIPR TETRA), S1P5. The class given is cell-based. An excerpt: (§1) Agonist percentage activation determinations were obtained by assaying sample compounds and referencing the Emax control for each receptor profiled. Antagonist percentage inhibition determinations were obtained by assaying sample compounds and referencing the control EC80 wells for each receptor profiled. The samples were run using a “Single Addition” assay protocol for the agonist and antagonist assay run. The protocol design was as follows:
(§2) Master stock solution: Unless specified otherwise, all sample compounds were diluted in 100% anhydrous DMSO including all serial dilutions. All control wells contained identical solvent final concentrations as did the sample compound wells.
(§3) Compound plate for assay: The sample compounds were transferred from a master stock solution into a daughter plate that was used in the assay. Each sample compound was diluted into assay buffer (1×HBSS with 20 mM HEPES and 2.5 mM Probenecid) at an appropriate concentration to obtain final concentrations.
(§4) Sample compounds were plated in an eight-point, four-fold dilution series in duplicate with a top concentration of 10 μM. The concentrations described here reflect the final concentration of the compounds during the antagonist assay.
(§5) Reference agonists were handled as mentioned above serving as assay control. The reference agonists were handled as described above for Emax.
(§6) Assay was read for 180 seconds using the […] (This assay run added sample compounds and reference agonist to respective wells). At the completion of the first “Single Addition” assay run, assay plate was removed from the […] and placed at 25° C. for seven (7) minutes.
(§7) Using the EC80 values determined during the agonist assay, stimulated all pre-incubated sample compound and reference antagonist (if applicable) wells with EC80 of reference agonist. Read for 180 seconds using the […] (This assay added reference agonist to respective wells—then fluorescence measurements were collected to calculate percentage inhibition values).
(§8) All plates were subjected to appropriate baseline corrections. Once baseline corrections were processed, maximum fluorescence values were exported and data manipulated to calculate percentage activation, percentage inhibition and Z′.

In experiment [2] the target is T1, S1P4 (Homo sapiens, UniProt O95977).
T1 sequence (O95977 1-384): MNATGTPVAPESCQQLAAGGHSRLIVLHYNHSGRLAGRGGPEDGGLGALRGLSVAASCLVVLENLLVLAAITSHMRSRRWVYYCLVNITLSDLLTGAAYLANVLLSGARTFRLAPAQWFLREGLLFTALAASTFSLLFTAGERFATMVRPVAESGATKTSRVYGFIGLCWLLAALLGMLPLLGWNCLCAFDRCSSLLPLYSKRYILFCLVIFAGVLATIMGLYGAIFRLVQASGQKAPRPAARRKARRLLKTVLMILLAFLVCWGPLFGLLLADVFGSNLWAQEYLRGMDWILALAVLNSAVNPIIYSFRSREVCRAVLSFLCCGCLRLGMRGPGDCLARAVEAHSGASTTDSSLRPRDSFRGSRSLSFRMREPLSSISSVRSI
Description: S1P receptor activity assay (calcium flux, FLIPR TETRA), S1P4. The class given is cell-based.
Source text: as §1, §2, §3, §4, §5, §6, §7, §8
In general terms: A change in cytosolic calcium serves as a functional read-out for many receptors and channels.

The target in experiment [3] is T2, Human ATX protein (Homo sapiens, UniProt Q13822).
T2 construct: made in house
Description: Autotaxin (ATX) FRET assay with FS-3 substrate. Format: biochemical. An excerpt:
ATX (Autotaxin) is a 125 KDa glycoprotein with lysophospholipase D (LPLD) activity that generates the bioactive lipid lysophosphatidic acid (LPA) from lysophosphatidylcholine (LPC). The ATX biochemical assay utilizes a FRET (fluorescence resonance energy transfer) technology platform. […] ATX catalyzes the hydrolysis of the substrate which separates the dabsyl quencher from the fluorescein reporter, which becomes fluorescent. The reaction is monitored by a SpectraMax M5 (Molecular Devices, Sunnyvale, Calif.) with at excitation wavelength 485 nm and emission wavelength 535 nm.
Fatty acid free-BSA (Sigma A8806): 10 mg/mL in H2O, stored at 4° C.
2×ATX assay buffer: 100 mM Tris, 280 mM NaCl, 10 mM KCl, 2 mM CaCl2, 2 mM MgCl2, pH 7.4.
Human ATX protein: expressed and purified in house. Stored at −80° C.
Substrate FS-3 (Echelon, L-2000): 100 μg in 77.74 μL H2O (1 mM stock), stored at −20° C.
Compound dilution—All compounds were provided at 10 mM in 100% DMSO. In the first well, 2 μL of 10 mM compound was added to 78 μL of DMSO (1:40 dilution). In subsequent wells 3-fold dilution (total 10 dilutions) were performed.
1×ATX assay buffer was made up with a final concentration of 1 mg/mL fatty acid free-BSA using 2×ATX assay buffer, 10 mg/ml fatty acid free-BSA and ddH2O.
38 μL was added per well to the assay plate. The final concentration of ATX in the reaction as 1.0 μg/mL.
2 μL per well of compounds was transferred to provide the desired concentration. The plate was centrifuged, then incubated at room temperature for 30 minutes on the shaker.
FS-3 was diluted with 1×ATX assay buffer to a concentration of FS-3 of 10 μM (5×). Then, 10 μL was added per well to the assay plate. The final concentration of FS-3 in the reaction was 2 μM. The plate was centrifuged. The plate was kept shaking at room temperature for 2 hours. Because FS-3 substrate is light sensitive, plates were kept covered and protected from light.

The target in experiment [4] is S1P1 (Homo sapiens, UniProt P21453). Description: S1P receptor activity assay (calcium flux, FLIPR TETRA), S1P1. Format: cell-based.
S1P1, sequence (P21453 whole entry): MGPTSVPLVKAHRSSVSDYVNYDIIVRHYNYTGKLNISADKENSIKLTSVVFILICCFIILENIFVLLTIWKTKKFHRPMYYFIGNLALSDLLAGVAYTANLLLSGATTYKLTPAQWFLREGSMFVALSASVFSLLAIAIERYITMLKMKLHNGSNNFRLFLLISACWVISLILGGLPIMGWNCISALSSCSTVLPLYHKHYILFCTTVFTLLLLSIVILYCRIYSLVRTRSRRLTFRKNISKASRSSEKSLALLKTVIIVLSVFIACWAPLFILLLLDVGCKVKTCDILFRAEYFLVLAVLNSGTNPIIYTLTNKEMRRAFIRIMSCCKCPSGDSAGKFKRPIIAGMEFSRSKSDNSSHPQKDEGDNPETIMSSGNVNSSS
Source text: as §1, §2, §3, §4, §5, §6, §7, §8

Where [5] appears, read: calcium flux, top concentration 10 μM, read-out: IC50 for S1P5.
[6] abbreviates: calcium flux, top concentration 10 μM, the >5 μM sentence says only 'for S1P4', read-out: IC50 for S1P4 agonist activity.
Where [7] appears, read: FS-3 2 μM, ATX 1.0 μg/mL, 2 hours at room temperature, read-out: IC50 (ATX).
The mark [8] stands for this setting: calcium flux, top concentration 10 μM, the >5 μM sentence says only 'for S1P1', read-out: IC50 for S1P1 agonist activity.

We go through 17 molecules from US9850206B2, “S1P and/or ATX modulating agents” (BIOGEN MA INC., priority 2012, dated 2017).

Read-outs that look alike come from different tables or passages of the source. A value given as a limit tells only on which side of the number the result lay.

S1P5, sequence (Q9H228 whole entry): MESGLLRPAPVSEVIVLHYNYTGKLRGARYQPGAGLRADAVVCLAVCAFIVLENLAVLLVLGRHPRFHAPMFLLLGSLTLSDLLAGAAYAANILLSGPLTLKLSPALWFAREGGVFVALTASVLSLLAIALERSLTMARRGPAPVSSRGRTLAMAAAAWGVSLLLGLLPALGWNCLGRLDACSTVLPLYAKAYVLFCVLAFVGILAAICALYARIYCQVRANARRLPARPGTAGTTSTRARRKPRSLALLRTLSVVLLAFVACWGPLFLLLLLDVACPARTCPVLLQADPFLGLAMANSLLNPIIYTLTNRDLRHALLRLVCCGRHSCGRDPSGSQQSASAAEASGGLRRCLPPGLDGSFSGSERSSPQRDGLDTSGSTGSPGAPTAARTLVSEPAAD

On to `CC(C)(C)[C@H]1CC[C@H](Oc2ccc(N3CCN(CCC(=O)O)CC3)cc2)CC1` [Example 17, 3-(4-(4-((trans-4-(tert-Butyl)cyclohexyl)oxy)phenyl)piperazin-1-yl)propanoic acid], for which the half-inhibitory concentration (IC50) (as a rule, the concentration needed to halve the response being measured) is greater than 5 µM in experiment [1] (setting [5]), 2 to 5 µM in experiment [2] (setting [6]), greater than 10 µM in experiment [3] (setting [7]) and greater than 5 µM in experiment [4] (setting [8]).

In the case of `CC(C)(C)[C@H]1CC[C@H](Oc2ccc(N3CCN(CCCC(=O)O)CC3)cc2)CC1` [Example 18, 4-(4-(4-((trans-4-(tert-Butyl)cyclohexyl)oxy)phenyl)piperazin-1-yl)butanoic acid], the IC50 in experiment [1] (setting [5]) was greater than 5 µM; in experiment [2] (setting [6]), 2 to 5 µM; in experiment [3] (setting [7]) it was greater than 10 µM; in experiment [4] (setting [8]) it was greater than 5 µM.

For the molecule `CC(C)(C)[C@H]1CC[C@H](Oc2ccc(N3CCN(CC45CCC(C(=O)O)(CC4)CC5)CC3)cc2)CC1` [Example 19, 4-((4-(4-((trans-4-(tert-Butyl)cyclohexyl)oxy)phenyl)piperazin-1-yl)methyl)bicyclo[2.2.2]octane-1-carboxylic acid], the concentration for half-maximal inhibition (IC50) was greater than 5 µM in experiment [1] (setting [5]), no more than 2 µM in experiment [2] (setting [6]), no more than 5 µM in experiment [3] (setting [7]) and greater than 5 µM in experiment [4] (setting [8]).

As for `CCCCCCCCOc1ccc(N2CCN(CCC(=O)O)CC2)nn1` [Example 20, 3-(4-(6-(Octyloxy)pyridazin-3-yl)piperazin-1-yl)propanoic acid], the concentration for half-maximal inhibition (IC50) in experiment [1] (setting [5]) was greater than 5 µM; in experiment [2] (setting [6]) it was 2 to 5 µM; in experiment [3] (setting [7]), 5 to 10 µM; in experiment [4] (setting [8]), greater than 5 µM.

On to `CCCCCCCCOc1cnc(N2CCN(CCC(=O)O)CC2)nc1` [Example 21, 3-(4-(5-(Octyloxy)pyrimidin-2-yl)piperazin-1-yl)propanoic acid], for which the half-inhibitory concentration (IC50) is greater than 5 µM in experiment [1] (setting [5]), no more than 2 µM in experiment [2] (setting [6]), 5 to 10 µM in experiment [3] (setting [7]) and greater than 5 µM in experiment [4] (setting [8]).

Consider `CCCCCCCCOc1ccc(C2CCCN(C3CCC(C(=O)O)CC3)C2)cc1` (centres unmarked) [Example 26, 4-(3-(4-(Octyloxy)phenyl)piperidin-1-yl)cyclohexanecarboxylic acid], for which the IC50 in experiment [1] (setting [5]) is greater than 5 µM; in experiment [2] (setting [6]), 2 to 5 µM; in experiment [3] (setting [7]), 5 to 10 µM; in experiment [4] (setting [8]) it was greater than 5 µM.

In the case of `CC[C@H]1CC[C@H](Oc2ccc(C3=CCN(CCC(=O)O)CC3)cc2)CC1` [Example 27, 3-(4-(4-((trans-4-Ethylcyclohexyl)oxy)phenyl)-5,6-dihydropyridin-1(2H)-yl)propanoic acid], the IC50 was greater than 5 µM in experiment [1] (setting [5]), greater than 5 µM in experiment [2], 5 to 10 µM in experiment [3] (setting [7]) and greater than 5 µM in experiment [4].

Regarding `CC[C@H]1CC[C@H](Oc2ccc(C3CCN(CCC(=O)O)CC3)cc2)CC1` [Example 28, 3-(4-(4-((trans-4-ethylcyclohexyl)oxy)phenyl)piperidin-1-yl)propanoic acid], the IC50 in experiment [1] (setting [5]) is greater than 5 µM; in experiment [2] (setting [6]) it was greater than 5 µM; in experiment [3] (setting [7]), greater than 10 µM; in experiment [4] (setting [8]) it was greater than 5 µM.

Consider `CC[C@H]1CC[C@H](Oc2ccc(C3=CCN(CCCC(=O)O)CC3)cc2)CC1` [Example 29, 4-(4-(4-((trans-4-Ethylcyclohexyl)oxy)phenyl)-5,6-dihydropyridin-1(2H)-yl)butanoic acid], for which the concentration for half-maximal inhibition (IC50) in experiment [1] (setting [5]) is greater than 5 µM; in experiment [2] it was no more than 2 µM; in experiment [3] (setting [7]), greater than 10 µM; in experiment [4], greater than 5 µM.

As for `CC[C@H]1CC[C@H](Oc2ccc(C3CCN(CCCC(=O)O)CC3)cc2)CC1` [Example 30, 4-(4-(4-((trans-4-Ethylcyclohexyl)oxy)phenyl)piperidin-1-yl)butanoic acid], the IC50 in experiment [1] (setting [5]) is greater than 5 µM; in experiment [2] (setting [6]), no more than 2 µM; in experiment [3] (setting [7]) it was greater than 10 µM; in experiment [4] (setting [8]) it was greater than 5 µM.

On to `CC[C@H]1CC[C@H](Oc2ccc(C3=CCN(CCCCC(=O)O)CC3)cc2)CC1` [Example 31, 5-(4-(4-((trans-4-Ethylcyclohexyl)oxy)phenyl)-5,6-dihydropyridin-1(2H)-yl)pentanoic acid], for which the IC50 was greater than 5 µM in experiment [1] (setting [5]), no more than 2 µM in experiment [2], greater than 10 µM in experiment [3] (setting [7]) and greater than 5 µM in experiment [4].

As for `CC[C@H]1CC[C@H](Oc2ccc(C3CCN(CCCCC(=O)O)CC3)cc2)CC1` [Example 32, 5-(4-(4-((trans-4-Ethylcyclohexyl)oxy)phenyl)piperidin-1-yl)pentanoic acid], the IC50 in experiment [1] (setting [5]) is greater than 5 µM; in experiment [2] (setting [6]) it was greater than 5 µM; in experiment [3] (setting [7]), no more than 5 µM; in experiment [4] (setting [8]), greater than 5 µM.

In the case of `CC[C@H]1CC[C@@H](Oc2ccc(C3=CCN(CCC(=O)O)CC3)cc2)CC1` [Example 33, 3-(4-(4-((cis-4-Ethylcyclohexyl)oxy)phenyl)-5,6-dihydropyridin-1(2H)-yl)propanoic acid], the half-inhibitory concentration (IC50) in experiment [1] was greater than 5 µM; in experiment [2], no more than 2 µM; in experiment [3], greater than 10 µM; in experiment [4], greater than 5 µM.

With `CC[C@H]1CC[C@@H](Oc2ccc(C3CCN(CCC(=O)O)CC3)cc2)CC1` [Example 34, 3-(4-(4-((cis-4-Ethylcyclohexyl)oxy)phenyl)piperidin-1-yl)propanoic acid], the IC50 in experiment [1] (setting [5]) was greater than 5 µM; in experiment [2] (setting [6]) it was greater than 5 µM; in experiment [3] (setting [7]) it was greater than 10 µM; in experiment [4] (setting [8]) it was greater than 5 µM.

As to `CC[C@H]1CC[C@@H](Oc2ccc(C3=CCN(CCCC(=O)O)CC3)cc2)CC1` [Example 35, 4-(4-(4-((cis-4-Ethylcyclohexyl)oxy)phenyl)-5,6-dihydropyridin-1(2H)-yl)butanoic acid], the IC50 in experiment [1] (setting [5]) is greater than 5 µM; in experiment [2] it was no more than 2 µM; in experiment [3] (setting [7]), greater than 10 µM; in experiment [4], greater than 5 µM.

Turning to `CC[C@H]1CC[C@@H](Oc2ccc(C3CCN(CCCC(=O)O)CC3)cc2)CC1` [Example 36, 4-(4-(4-((cis-4-Ethylcyclohexyl)oxy)phenyl)piperidin-1-yl)butanoic acid], the IC50 in experiment [1] (setting [5]) is greater than 5 µM; in experiment [2] (setting [6]), 2 to 5 µM; in experiment [3] (setting [7]), 5 to 10 µM; in experiment [4] (setting [8]) it was greater than 5 µM.

Regarding `CC[C@H]1CC[C@@H](Oc2ccc(C3=CCN(CCCCC(=O)O)CC3)cc2)CC1` [Example 37, 5-(4-(4-((cis-4-Ethylcyclohexyl)oxy)phenyl)-5,6-dihydropyridin-1(2H)-yl)pentanoic acid], the 50% inhibitory concentration (IC50) in experiment [1] (setting [5]) was 2 to 5 µM; in experiment [2], no more than 2 µM; in experiment [3] (setting [7]), no more than 5 µM; in experiment [4], no more than 2 µM.
